Laboratory results as given in patent US20260070902A1, “SULFONYL DERIVATIVES AS CCR6 INHIBITORS” (Hoffmann-La Roche Inc., priority 2022, published 2026).

target: T1, human CCR6 (Homo sapiens, UniProt P51684); experiment: Human CCR6-CRE reporter assay; assay type: cell-based; parameters: The second construct contained the open reading frame of human CCR6 in the pUNO1 backbone; host or cells: 293FT cells; conditions: relative -Log IC50; 293FT cells transfected with human CCR6 and CRE-luciferase reporter; 6 μM Forskolin, 6 nM CCL20; 5 h
T1 sequence (P51684 1-374): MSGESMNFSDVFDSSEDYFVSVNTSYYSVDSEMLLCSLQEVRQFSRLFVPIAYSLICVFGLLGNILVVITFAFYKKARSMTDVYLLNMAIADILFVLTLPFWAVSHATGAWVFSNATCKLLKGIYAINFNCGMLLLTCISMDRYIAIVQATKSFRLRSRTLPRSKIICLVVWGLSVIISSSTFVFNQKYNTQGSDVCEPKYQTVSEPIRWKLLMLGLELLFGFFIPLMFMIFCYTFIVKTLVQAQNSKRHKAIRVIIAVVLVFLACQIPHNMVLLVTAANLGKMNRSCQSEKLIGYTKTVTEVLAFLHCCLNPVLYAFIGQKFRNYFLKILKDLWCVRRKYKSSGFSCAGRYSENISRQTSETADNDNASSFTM
Description: Human CCR6-CRE Reporter Assay
293FT cells were transfected with 2 constructs using TransIT-293 (Mirus). The first construct (pGL4.29, Promega) expressed the luciferase reporter gene luc2P in response to the binding of cAMP-induced CREB to the CREelement in its promoter. The second construct contained the open reading frame of human CCR6 in the pUNO1 backbone under the control of an enhanced CMV promoter (InVivoGen). 48 h after transfection, cells were harvested and diluted to 750,000 cells/ml in culture medium (DMEM, 10% FBS, 1× pen/strep (Gibco 15140)). Compounds were 2.5-fold serially diluted in DMSO. Further dilutions were made in assay medium (DMEM, 10% FBS, 1× pen/strep, 6 μM Forskolin, 6 nM CCL20). 4 μl of the compound solution was added to a white MW384 plate, followed by 20 μl of the cell suspension. Final DMSO concentration in the assay was 0.1%. The MW384 plate was placed in an incubator at 37° C., 5% CO2 for 5 h. Luciferase activity was determined by addition of 24 μl of a 2.5× diluted BriteLite luciferase solution (Perkin Elmer), followed by luminescence measurement using a VICTOR Plate reader (Perkin Elmer). […] The relative −Log IC50 was determined with GraphPad Prism 9 using a four-parameter dose-response model.

SMILES | IC50 [nM]
Cc1n[nH]c2ccc(-c3ccc(S(=O)(=O)[C@H]4CC[C@@H](Nc5ccc(S(F)(F)(F)(F)F)cc5)CC4)cc3)cc12 [Example 5, 4-(pentafluoro-λ^6-sulfanyl)-N-[cis-4-[4-(3-methyl-2H-indazol-5-yl)benzenesulfonyl]cyclohexyl]aniline] | 501
N#Cc1c[nH]c2ccc(-c3ccc(S(=O)(=O)[C@H]4CC[C@@H](Nc5ccc(S(F)(F)(F)(F)F)cc5)CC4)cc3)cc12 [Example 8, 5-(4-{[cis-4-{[4-(pentafluoro-λ^6-sulfanyl)phenyl]Amino}cyclohexyl]sulfonyl}phenyl)-1H-indole-3-carbonitrile] | 1260
N#Cc1cnc2ccc(-c3ccc(S(=O)(=O)[C@H]4CC[C@@H](Nc5ccc(S(F)(F)(F)(F)F)cc5)CC4)cc3)cn12 [Example 17, 6-(4-{[cis-4-{[4-(pentafluoro-λ^6-sulfanyl)phenyl]Amino}cyclohexyl]sulfonyl}phenyl)imidazo[1,2-a]pyridine-3-carbonitrile] | 794
CN(C)C(=O)c1ccc(-c2ccc(S(=O)(=O)[C@H]3CC[C@@H](Nc4ccc(S(F)(F)(F)(F)F)cc4)CC3)cc2)nc1 [Example 45, N,N-dimethyl-6-(4-{[cis-4-{[4-(pentafluoro-λ^6-sulfanyl)phenyl]Amino}cyclohexyl]sulfonyl}phenyl)pyridine-3-carboxamide] | 1580
CN(C)C(=O)c1ccc(-c2ccc(S(=O)(=O)[C@H]3CC[C@H](Nc4ccc(S(F)(F)(F)(F)F)cc4)CC3)cc2)nc1 [Example 46, N,N-dimethyl-6-(4-{[trans-4-{[4-(pentafluoro-λ^6-sulfanyl)phenyl]Amino}cyclohexyl]sulfonyl}phenyl)pyridine-3-carboxamide] | 251
O=c1cc(-c2ccc(S(=O)(=O)[C@H]3CC[C@H](Nc4ccc(S(F)(F)(F)(F)F)cc4)CC3)cc2)cc[nH]1 [Example 52, 4-(4-{[trans-4-{[4-(pentafluoro-λ^6-sulfanyl)phenyl]Amino}cyclohexyl]sulfonyl}phenyl)-1,2-dihydropyridin-2-one] | 39.8
O=C1Cc2ccc(-c3ccc(S(=O)(=O)[C@H]4CC[C@H](Nc5ccc(S(F)(F)(F)(F)F)cc5)CC4)cc3)cc2CN1 [Example 53, 7-(4-{[trans-4-{[4-(pentafluoro-λ^6-sulfanyl)phenyl]Amino}cyclohexyl]sulfonyl}phenyl)-1,2,3,4-tetrahydroisoquinolin-3-one] | 79.4
O=C1Cc2cc(-c3ccc(S(=O)(=O)[C@H]4CC[C@H](Nc5ccc(S(F)(F)(F)(F)F)cc5)CC4)cc3)ccc2CN1 [Example 54, 6-(4-{[trans-4-{[4-(pentafluoro-λ^6-sulfanyl)phenyl]Amino}cyclohexyl]sulfonyl}phenyl)-1,2,3,4-tetrahydroisoquinolin-3-one] | 50.1
O=c1[nH]cnn2cc(-c3ccc(S(=O)(=O)[C@H]4CC[C@H](Nc5ccc(S(F)(F)(F)(F)F)cc5)CC4)cc3)cc12 [Example 55, 6-(4-{[trans-4-{[4-(pentafluoro-λ^6-sulfanyl)phenyl]Amino}cyclohexyl]sulfonyl}phenyl)-3H,4H-pyrrolo[2,1-f][1,2,4]triazin-4-one] | 31.6
CP(C)(=O)c1ccc(-c2ccc(S(=O)(=O)[C@H]3CC[C@H](Nc4ccc(S(F)(F)(F)(F)F)cc4)CC3)cc2)cc1 [Example 57, 4-(pentafluoro-λ^6-sulfanyl)-N-[trans-4-{[4′-(dimethylphosphoryl)-[1,1′-biphenyl]-4-yl]sulfonyl}cyclohexyl]aniline] | 200
NC(=O)c1ccc(-c2ccc(S(=O)(=O)[C@H]3CC[C@H](Nc4ccc(S(F)(F)(F)(F)F)cc4)CC3)cc2)nn1 [Example 62, 6-(4-{[trans-4-{[4-(pentafluoro-λ^6-sulfanyl)phenyl]Amino}cyclohexyl]sulfonyl}phenyl)pyridazine-3-carboxamide] | 398
Cc1cc(-c2ccc(S(=O)(=O)[C@H]3CC[C@H](Nc4ccc(S(F)(F)(F)(F)F)cc4)CC3)cc2)cn2c(C(C)C)cnc12 [Example 64, 4-(pentafluoro-λ^6-sulfanyl)-N-[trans-4-{4-[8-methyl-3-(propan-2-yl)imidazo[1,2-a]pyridin-6-yl]benzenesulfonyl}cyclohexyl]aniline] | 50.1
O=C1Nc2ccc(-c3ccc(S(=O)(=O)[C@H]4CC[C@H](Nc5ccc(S(F)(F)(F)(F)F)cc5)CC4)cc3)cc2C12CC2 [Example 65, 5′-(4-{[trans-4-{[4-(pentafluoro-λ^6-sulfanyl)phenyl]amino}cyclohexyl]sulfonyl}phenyl)-1′,2′-dihydrospiro[cyclopropane-1,3′-indol]-2′-one] | 39.8
N=S(=O)(c1ccc(-c2ccc3nccn3c2)cc1)[C@H]1CC[C@@H](Nc2ccc(S(F)(F)(F)(F)F)cc2)CC1 (stereo partly drawn) [Example 88, (4-{imidazo[1,2-a]pyridin-6-yl}phenyl)[cis-4-{[4-(pentafluoro-λ^6-sulfanyl)phenyl]Amino}cyclohexyl](imino)-λ^6-sulfanone] | 794

Results, then the compound that gave them:

IC50 [nM] | SMILES
63.1 | O=S(=O)(c1ccc(-c2ccc3nnc(C4CCCC4)n3c2)cc1)N1CCC(Nc2ccc(S(F)(F)(F)(F)F)cc2)CC1 [Example 31, 1-(4-{3-cyclopentyl-[1,2,4]triazolo[4,3-a]pyridin-6-yl}benzenesulfonyl)-N-[4-(pentafluoro-λ^6-sulfanyl)phenyl]piperidin-4-amine]
631 | Cc1cnc2ccc(-c3ccc(S(=O)(=O)N4CCC(Nc5ccc(S(F)(F)(F)(F)F)cc5)CC4)c(F)c3)cn12 [Example 67, 1-(2-fluoro-4-{3-methylimidazo[1,2-a]pyridin-6-yl}benzenesulfonyl)-N-[4-(pentafluoro-λ^6-sulfanyl)phenyl]piperidin-4-amine]
1000 | Cc1cnc2ccc(-c3ccc(S(=O)(=O)N4CCC(Nc5ccc(S(F)(F)(F)(F)F)cc5)CC4)cc3F)cn12 [Example 68, 1-(3-fluoro-4-{3-methylimidazo[1,2-a]pyridin-6-yl}benzenesulfonyl)-N-[4-(pentafluoro-λ^6-sulfanyl)phenyl]piperidin-4-amine]
1260 | Cc1cnc2ccc(-c3ccc(S(=O)(=O)N4CCC(Nc5ccc(S(F)(F)(F)(F)F)cc5)CC4)nc3)cn12 [Example 70, 1-[(5-{3-methylimidazo[1,2-a]pyridin-6-yl}pyridin-2-yl)sulfonyl]-N-[4-(pentafluoro-λ^6-sulfanyl)phenyl]piperidin-4-amine]
1000 | N#Cc1cnc2ccc(-c3ccc(S(=O)(=O)N4CCC(Nc5ccc(S(F)(F)(F)(F)F)cc5)CC4)cc3F)cn12 [Example 71, 6-{2-fluoro-4-[(4-{[4-(pentafluoro-λ^6-sulfanyl)phenyl]Amino}piperidin-1-yl)sulfonyl]phenyl}imidazo[1,2-a]pyridine-3-carbonitrile]
1580 | O=S(=O)(c1ccc(-c2ccc3nccn3c2)c(F)c1)N1CCC(Nc2ccc(S(F)(F)(F)(F)F)cc2)CC1 [Example 72, 1-(3-fluoro-4-{imidazo[1,2-a]pyridin-6-yl}benzenesulfonyl)-N-[4-(pentafluoro-λ^6-sulfanyl)phenyl]piperidin-4-amine]
1000 | O=S(=O)(c1ccc(-c2ccc3nccn3c2)cn1)N1CCC(Nc2ccc(S(F)(F)(F)(F)F)cc2)CC1 [Example 75, 1-[(5-{imidazo[1,2-a]pyridin-6-yl}pyridin-2-yl)sulfonyl]-N-[4-(pentafluoro-λ^6-sulfanyl)phenyl]piperidin-4-amine]
1580 | N#Cc1cnc2ccc(-c3ccc(S(=O)(=O)N4CCC(Nc5ccc(S(F)(F)(F)(F)F)cc5)CC4)nc3)cn12 [Example 78, 6-{6-[(4-{[4-(pentafluoro-λ^6-sulfanyl)phenyl]Amino}piperidin-1-yl)sulfonyl]pyridin-3-yl}imidazo[1,2-a]pyridine-3-carbonitrile]
1580 | O=S(=O)(c1ccc(-c2ccc3nccn3c2)cc1Cl)N1CCC(Nc2ccc(S(F)(F)(F)(F)F)cc2)CC1 [Example 79, 1-(2-chloro-4-{imidazo[1,2-a]pyridin-6-yl}benzenesulfonyl)-N-[4-(pentafluoro-λ^6-sulfanyl)phenyl]piperidin-4-amine]
2000 | N#Cc1cnc2ccc(-c3ccc(S(=O)(=O)N4CCC(Nc5ccc(S(F)(F)(F)(F)F)cc5)CC4)c(Cl)c3)cn12 [Example 80, 6-{3-chloro-4-[(4-{[4-(pentafluoro-λ^6-sulfanyl)phenyl]Amino}piperidin-1-yl)sulfonyl]phenyl}imidazo[1,2-a]pyridine-3-carbonitrile]
